Data from US20130303509A1, “NAMPT INHIBITORS” (AbbVie Inc., priority 2012, published 2013).

system: PC3 cells; experiment: NAMPT Cell Proliferation Assay; type: cell-based; conditions: Homo sapiens, PC-3, 120 h, 5 days incubation, cell viability by Cell Titer Glo
Procedure, shortened: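 Seeded at 500 cells/well in RPMI with 10% heat-inactivated FBS and left to attach overnight at 37° C, 5% CO2. Compounds were added as 10-fold dilutions […] for 5 days, then viability was read by CellTiter-Glo. IC50s came from sigmoidal fits of percent inhibition.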

Row | SMILES | IC50
1 | O=C(Nc1ccc(O[C@@H]2CCN(C(=O)C3CCCO3)C2)cc1)C1CN(c2cccnn2)C1 (stereo partly drawn) [Example 499, 1-(pyridazin-3-yl)-N-(4-{[(3R)-1-(tetrahydrofuran-2-ylcarbonyl)pyrrolidin-3-yl]oxy}phenyl)azetidine-3-carboxamide] | 12.1 nM
2 | O=C(Nc1ccc(O[C@@H]2CCN(C(=O)C3CCOC3)C2)cc1)C1CN(c2cccnn2)C1 (stereo partly drawn) [Example 503, 1-(pyridazin-3-yl)-N-(4-{[(3R)-1-(tetrahydrofuran-3-ylcarbonyl)pyrrolidin-3-yl]oxy}phenyl)azetidine-3-carboxamide] | 58.2 nM
3 | CCC(C)(C)C(=O)N1CC[C@@H](Oc2ccc(NC(=O)C3CN(c4cccnn4)C3)cc2)C1 [Example 515, N-(4-{[(3R)-1-(2,2-dimethylbutanoyl)pyrrolidin-3-yl]oxy}phenyl)-1-(pyridazin-3-yl)azetidine-3-carboxamide] | 0.85 nM
4 | CC(C)CC(=O)N1CC[C@@H](Oc2ccc(NC(=O)C3CN(c4cccnn4)C3)cc2)C1 [Example 520, N-(4-{[(3R)-1-(3-methylbutanoyl)pyrrolidin-3-yl]oxy}phenyl)-1-(pyridazin-3-yl)azetidine-3-carboxamide] | 0.47 nM
5 | O=C(Nc1ccc(O[C@@H]2CCN(C(=O)CC(F)(F)F)C2)cc1)C1CN(c2cccnn2)C1 [Example 521, 1-(pyridazin-3-yl)-N-(4-{[(3R)-1-(3,3,3-trifluoropropanoyl)pyrrolidin-3-yl]oxy}phenyl)azetidine-3-carboxamide] | 4.72 nM
6 | CC(C)(C)C(=O)N1CC[C@@H](Oc2ccc(NC(=O)C3CN(c4cccnn4)C3)cc2)C1 [Example 523, N-(4-{[(3R)-1-(2,2-dimethylpropanoyl)pyrrolidin-3-yl]oxy}phenyl)-1-(pyridazin-3-yl)azetidine-3-carboxamide] | 0.99 nM
7 | O=C(Nc1ccc(O[C@@H]2CCN(C(=O)C3CCC(F)(F)CC3)C2)cc1)C1CN(c2cccnn2)C1 [Example 524, N-[4-({(3R)-1-[(4,4-difluorocyclohexyl)carbonyl]pyrrolidin-3-yl}oxy)phenyl]-1-(pyridazin-3-yl)azetidine-3-carboxamide] | 5.73 nM
8 | O=C(Nc1ccc(C2CCN(C(=O)c3ccccc3Cl)CC2)cc1)C1CN(c2ccnnc2)C1 [Example 525, N-{4-[1-(2-chlorobenzoyl)piperidin-4-yl]phenyl}-1-(pyridazin-4-yl)azetidine-3-carboxamide] | 0.93 nM
9 | O=C(Nc1ccc(C2CCN(C(=O)c3nccs3)CC2)cc1)C1CN(c2ccnnc2)C1 [Example 526, 1-(pyridazin-4-yl)-N-{4-[1-(1,3-thiazol-2-ylcarbonyl)piperidin-4-yl]phenyl}azetidine-3-carboxamide] | 0.94 nM
10 | O=C(Nc1ccc(C2CCN(C(=O)CC3CC3)CC2)cc1)C1CN(c2ccnnc2)C1 [Example 527, N-{4-[1-(cyclopropylacetyl)piperidin-4-yl]phenyl}-1-(pyridazin-4-yl)azetidine-3-carboxamide] | 7.78 nM
11 | CC(C)C(=O)N1CCC(c2ccc(NC(=O)C3CN(c4ccnnc4)C3)cc2)CC1 [Example 528, N-{4-[1-(2-methylpropanoyl)piperidin-4-yl]phenyl}-1-(pyridazin-4-yl)azetidine-3-carboxamide] | 19.2 nM
12 | O=C(Nc1ccc(C2CCN(C(=O)c3ccc(F)cc3)CC2)cc1)C1CN(c2ccnnc2)C1 [Example 529, N-{4-[1-(4-fluorobenzoyl)piperidin-4-yl]phenyl}-1-(pyridazin-4-yl)azetidine-3-carboxamide] | 9.33 nM
13 | O=C(Nc1ccc(C2CCN(C(=O)c3ccsc3)CC2)cc1)C1CN(c2ccnnc2)C1 [Example 530, 1-(pyridazin-4-yl)-N-{4-[1-(thiophen-3-ylcarbonyl)piperidin-4-yl]phenyl}azetidine-3-carboxamide] | 2.02 nM
14 | O=C(Nc1ccc(C2CCN(C(=O)Cc3ccc(F)cc3)CC2)cc1)C1CN(c2ccnnc2)C1 [Example 531, N-(4-{1-[(4-fluorophenyl)acetyl]piperidin-4-yl}phenyl)-1-(pyridazin-4-yl)azetidine-3-carboxamide] | 17.6 nM
15 | O=C(Nc1ccc(C2CCN(C(=O)Cc3cc(F)cc(F)c3)CC2)cc1)C1CN(c2ccnnc2)C1 [Example 532, N-(4-{1-[(3,5-difluorophenyl)acetyl]piperidin-4-yl}phenyl)-1-(pyridazin-4-yl)azetidine-3-carboxamide] | 7.24 nM

Other lines, results leading:

Row | IC50 | SMILES
16 | 1.02 nM | Cc1ccc(C(=O)N2CC[C@@H](Oc3ccc(NC(=O)C4CN(c5cccnn5)C4)cc3)C2)s1 [Example 500, N-[4-({(3R)-1-[(5-methylthiophen-2-yl)carbonyl]pyrrolidin-3-yl}oxy)phenyl]-1-(pyridazin-3-yl)azetidine-3-carboxamide]
17 | 6.07 nM | O=C(Nc1ccc(O[C@@H]2CCN(C(=O)Cc3ccccc3F)C2)cc1)C1CN(c2cccnn2)C1 [Example 501, N-[4-({(3R)-1-[(2-fluorophenyl)acetyl]pyrrolidin-3-yl}oxy)phenyl]-1-(pyridazin-3-yl)azetidine-3-carboxamide]
18 | 4.74 nM | O=C(Nc1ccc(O[C@@H]2CCN(C(=O)C3CC3)C2)cc1)C1CN(c2cccnn2)C1 [Example 502, N-(4-{[(3R)-1-(cyclopropylcarbonyl)pyrrolidin-3-yl]oxy}phenyl)-1-(pyridazin-3-yl)azetidine-3-carboxamide]
19 | 7.75 nM | O=C(Nc1ccc(O[C@@H]2CCN(C(=O)c3cccc(OC(F)(F)F)c3)C2)cc1)C1CN(c2cccnn2)C1 [Example 504, 1-(pyridazin-3-yl)-N-[4-({(3R)-1-[3-(trifluoromethoxy)benzoyl]pyrrolidin-3-yl}oxy)phenyl]azetidine-3-carboxamide]
20 | 6.84 nM | O=C(Nc1ccc(O[C@@H]2CCN(C(=O)c3ccccn3)C2)cc1)C1CN(c2cccnn2)C1 [Example 505, 1-(pyridazin-3-yl)-N-(4-{[(3R)-1-(pyridin-2-ylcarbonyl)pyrrolidin-3-yl]oxy}phenyl)azetidine-3-carboxamide]
21 | 1.28 nM | O=C(Nc1ccc(O[C@@H]2CCN(C(=O)c3cccc(Cl)c3)C2)cc1)C1CN(c2cccnn2)C1 [Example 506, N-(4-{[(3R)-1-(3-chlorobenzoyl)pyrrolidin-3-yl]oxy}phenyl)-1-(pyridazin-3-yl)azetidine-3-carboxamide]
22 | 8.34 nM | O=C(Nc1ccc(O[C@@H]2CCN(C(=O)c3ccc(Cl)cc3)C2)cc1)C1CN(c2cccnn2)C1 [Example 507, N-(4-{[(3R)-1-(4-chlorobenzoyl)pyrrolidin-3-yl]oxy}phenyl)-1-(pyridazin-3-yl)azetidine-3-carboxamide]
23 | 0.79 nM | CC(C)(C(=O)N1CC[C@@H](Oc2ccc(NC(=O)C3CN(c4cccnn4)C3)cc2)C1)c1ccccc1 [Example 508, N-(4-{[(3R)-1-(2-methyl-2-phenylpropanoyl)pyrrolidin-3-yl]oxy}phenyl)-1-(pyridazin-3-yl)azetidine-3-carboxamide]
24 | 1.19 nM | O=C(Nc1ccc(O[C@@H]2CCN(C(=O)c3ccc(F)cc3F)C2)cc1)C1CN(c2cccnn2)C1 [Example 509, N-(4-{[(3R)-1-(2,4-difluorobenzoyl)pyrrolidin-3-yl]oxy}phenyl)-1-(pyridazin-3-yl)azetidine-3-carboxamide]
25 | 66.4 nM | COCC(=O)N1CC[C@@H](Oc2ccc(NC(=O)C3CN(c4cccnn4)C3)cc2)C1 [Example 510, N-(4-{[(3R)-1-(methoxyacetyl)pyrrolidin-3-yl]oxy}phenyl)-1-(pyridazin-3-yl)azetidine-3-carboxamide]
26 | 0.82 nM | O=C(Nc1ccc(O[C@@H]2CCN(C(=O)c3cccs3)C2)cc1)C1CN(c2cccnn2)C1 [Example 511, 1-(pyridazin-3-yl)-N-(4-{[(3R)-1-(thiophen-2-ylcarbonyl)pyrrolidin-3-yl]oxy}phenyl)azetidine-3-carboxamide]
27 | 15.5 nM | O=C(Nc1ccc(O[C@@H]2CCN(C(=O)Cc3cccc(C(F)(F)F)c3)C2)cc1)C1CN(c2cccnn2)C1 [Example 512, 1-(pyridazin-3-yl)-N-(4-{[(3R)-1-{[3-(trifluoromethyl)phenyl]acetyl}pyrrolidin-3-yl]oxy}phenyl)azetidine-3-carboxamide]
28 | 3.5 nM | CC(C)C(=O)N1CC[C@@H](Oc2ccc(NC(=O)C3CN(c4cccnn4)C3)cc2)C1 [Example 513, N-(4-{[(3R)-1-(2-methylpropanoyl)pyrrolidin-3-yl]oxy}phenyl)-1-(pyridazin-3-yl)azetidine-3-carboxamide]
29 | 0.32 nM | O=C(Nc1ccc(O[C@@H]2CCN(C(=O)c3ccccc3F)C2)cc1)C1CN(c2cccnn2)C1 [Example 514, N-(4-{[(3R)-1-(2-fluorobenzoyl)pyrrolidin-3-yl]oxy}phenyl)-1-(pyridazin-3-yl)azetidine-3-carboxamide]
30 | 2.26 nM | O=C(Nc1ccc(O[C@@H]2CCN(C(=O)c3cc(F)cc(F)c3)C2)cc1)C1CN(c2cccnn2)C1 [Example 516, N-(4-{[(3R)-1-(3,5-difluorobenzoyl)pyrrolidin-3-yl]oxy}phenyl)-1-(pyridazin-3-yl)azetidine-3-carboxamide]
31 | 9.21 nM | O=C(Nc1ccc(O[C@@H]2CCN(C(=O)c3ccc(C(F)(F)F)cc3)C2)cc1)C1CN(c2cccnn2)C1 [Example 517, 1-(pyridazin-3-yl)-N-[4-({(3R)-1-[4-(trifluoromethyl)benzoyl]pyrrolidin-3-yl}oxy)phenyl]azetidine-3-carboxamide]
32 | 0.87 nM | O=C(Nc1ccc(O[C@@H]2CCN(C(=O)c3cccc(F)c3)C2)cc1)C1CN(c2cccnn2)C1 [Example 518, N-(4-{[(3R)-1-(3-fluorobenzoyl)pyrrolidin-3-yl]oxy}phenyl)-1-(pyridazin-3-yl)azetidine-3-carboxamide]
33 | 3.21 nM | O=C(Nc1ccc(O[C@@H]2CCN(C(=O)c3ccc(OC(F)(F)F)cc3)C2)cc1)C1CN(c2cccnn2)C1 [Example 519, 1-(pyridazin-3-yl)-N-[4-({(3R)-1-[4-(trifluoromethoxy)benzoyl]pyrrolidin-3-yl}oxy)phenyl]azetidine-3-carboxamide]
34 | 0.78 nM | O=C(Nc1ccc(O[C@@H]2CCN(C(=O)C(F)(F)c3ccccc3)C2)cc1)C1CN(c2cccnn2)C1 [Example 522, N-[4-({(3R)-1-[difluoro(phenyl)acetyl]pyrrolidin-3-yl}oxy)phenyl]-1-(pyridazin-3-yl)azetidine-3-carboxamide]
